Series [1] has as its system human cancer cells, including multi-drug resistant cancer cells. The conditions noted are these: wide variety of human cancer cells; cited from earlier work.
Series [2] deals with colchicine binding site on tubulin. The conditions noted are these: compared with colchicine; cited from earlier work.
The test system of the next series is angiogenesis. The conditions noted are these: cited from earlier work.
For series [3] the following is noted: cited from earlier work.
Another series deals with KB cell line. In words: Cell growth inhibition assay on human cancer lines, parental KB. In kind it is cell-based. The conditions noted are these: cell type Oral, read-out: Cytotoxicity against KB. The procedure: (§1) Cell Growth Inhibition Assay: MCF-7 breast carcinoma cells were maintained in plastic dishes in DMEM medium supplemented with 10% fetal bovine serum. For in vitro treatment, tumor cells were seeded in […] of culture medium/well in 96-well plates to a final cell density of 6×10^3 cell/mL and incubated in a CO2 incubator at 37° C. for 24 h. The cells were treated with at least five different concentrations of a test indole compound, and incubated in a CO2 incubator at 37° C. for 72 h. The number of viable cells was estimated using MTS assay and absorbance was measured at 490 nm. Cytotoxicity of the test compounds was expressed in terms of IC50 values. The values presented represent averages of three independent experiments, each with duplicate samples.
(§2) Cell Growth Inhibition Assay on Multiple-drug Resistant Human Cancer Lines: Indole compounds were tested against several panels of drug-resistant cell lines. It is well known that several anti-mitotic agents, including vinca alkaloid (vincristine, vinblastine) and taxol, have been introduced in clinic to treat various human cancers. […] The mechanisms responsible for taxol resistance include overexpression of p-glycoprotein and mutation of tubulin. For comparison, […] anti-mitotic agents, i.e., Vincristine, VP-16, Cisplatin, CPT (camptothecin), and Taxol (paclitaxel) were also tested against several panels of drug-resistant cell lines. […]

For another series, the system named is HONE-1 cell line. The experiment in a line: Cell growth inhibition assay on human cancer lines, parental HONE-1. In kind it is cell-based. To be noted: NPC, read-out: Cytotoxicity against HONE-1. The procedure:
as §1, §2

This is an account of results in patent US6933316B2, “Indole compounds” (National Health Research Institutes, priority 2001, dated 2005).

Molecules are shown by their SMILES.

Regarding `COc1ccc(/C=C\c2cc(OC)c(OC)c(OC)c2)cc1O` [CA-4, combretastatin A-4], the “Cytotoxicity against human cancer cells” value in series [1] is reported as “strong cytotoxicity”. In series [2], the “Affinity for the colchicine binding site on tubulin relative to colchicine” value is given as “higher affinity for the colchicine binding site on tubulin than colchicine itself”. Besides, the Anti-angiogenesis activity entry in the series on angiogenesis is given as “anti-angiogenesis activity”. The Water-solubility result in series [3] was “low water-solubility”.

Take `N.N.[Cl][Pt][Cl]` [Cisplatin]: the figures for the IC50 in the series on KB cell line and in the series on HONE-1 cell line were 3 nM and 3000 nM, respectively.
